Reference: patent US8716284B2, “Adamantyl diamide derivatives and uses of same” (H. Lundbeck A/S, priority 2008, dated 2014)

Each molecule was assayed against T1, rat metabotropic glutamate receptor 5 (mGluR5) (Rattus norvegicus, UniProt P31424) (assay: Calcium mobilization assay (FLIPR) for negative or positive allosteric activity, HEK 293 cells). Details: HEK293, negative allosteric modulation, inhibition of EC80 glutamate response; read-out: FLIPR maximum inhibition.
T1 construct: expressed in transfected cells; host or cells: HEK 293
T1 sequence (P31424 21-1171 isoform P31424-2 limits assumed): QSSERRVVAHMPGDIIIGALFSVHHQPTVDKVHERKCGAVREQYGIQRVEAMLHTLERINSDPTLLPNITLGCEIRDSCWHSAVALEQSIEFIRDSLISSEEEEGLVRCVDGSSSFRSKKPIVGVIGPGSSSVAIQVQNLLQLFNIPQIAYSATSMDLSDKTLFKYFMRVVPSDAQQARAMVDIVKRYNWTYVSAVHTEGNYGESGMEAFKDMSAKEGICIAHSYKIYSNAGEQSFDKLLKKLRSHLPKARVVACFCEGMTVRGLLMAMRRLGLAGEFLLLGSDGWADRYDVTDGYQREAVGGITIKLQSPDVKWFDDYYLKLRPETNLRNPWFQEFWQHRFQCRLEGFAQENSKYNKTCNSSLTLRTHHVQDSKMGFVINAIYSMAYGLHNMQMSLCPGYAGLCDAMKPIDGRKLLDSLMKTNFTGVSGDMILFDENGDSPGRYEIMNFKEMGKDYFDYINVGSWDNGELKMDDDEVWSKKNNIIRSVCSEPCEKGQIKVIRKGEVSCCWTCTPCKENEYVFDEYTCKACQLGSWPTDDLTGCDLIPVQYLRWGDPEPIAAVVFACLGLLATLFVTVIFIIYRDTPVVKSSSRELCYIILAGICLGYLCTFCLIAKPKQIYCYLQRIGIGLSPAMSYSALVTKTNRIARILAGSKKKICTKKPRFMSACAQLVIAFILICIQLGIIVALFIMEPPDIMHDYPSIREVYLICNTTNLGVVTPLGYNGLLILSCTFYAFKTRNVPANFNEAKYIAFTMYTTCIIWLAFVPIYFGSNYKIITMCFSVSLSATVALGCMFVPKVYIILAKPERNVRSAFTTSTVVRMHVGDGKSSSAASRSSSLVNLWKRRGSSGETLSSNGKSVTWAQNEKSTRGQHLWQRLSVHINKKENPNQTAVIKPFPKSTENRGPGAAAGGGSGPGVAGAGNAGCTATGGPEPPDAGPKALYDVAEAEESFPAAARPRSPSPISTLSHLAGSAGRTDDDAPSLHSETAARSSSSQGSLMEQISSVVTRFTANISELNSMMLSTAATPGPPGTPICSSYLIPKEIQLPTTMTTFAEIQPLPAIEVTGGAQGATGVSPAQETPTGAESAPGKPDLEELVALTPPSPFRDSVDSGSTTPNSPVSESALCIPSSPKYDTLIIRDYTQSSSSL
Type: cell-based
Outline: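 Peak Fluo-4 calcium signal over 3 min at room temperature, minus basal, fitted by Hill equation, in stable rat mGluR5 HEK 293 cells (HBSS/HEPES pH 7.4, BSA, probenecid). Inhibition scored against EC80 glutamate, potentiation against EC20 glutamate, glutamate given with compound.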

Compound | Emax [%]
Cc1cccc(C(=O)NC23CC4CC(C2)CC(NC(=O)c2cccc(N(C)CCN(C)C)n2)(C4)C3)n1 [Example 204, 6-[(2-Dimethylamino-ethyl)-methyl-amino]-pyridine-2-carboxylic acid{3-[(6-methyl-pyridine-2-carbonyl)-amino]-adamantan-1-yl}-amide] | 63 to 99
Cc1cccc(C(=O)NC23CC4CC(C2)CC(NC(=O)c2cccc(N5CCC(O)C5)n2)(C4)C3)n1 (centres unmarked) [Example 205, 6-(3-Hydroxy-pyrrolidin-1-yl)-pyridine-2-carboxylic acid{3-[(6-methyl-pyridine-2-carbonyl)-amino]-adamantan-1-yl}-amide] | 63 to 99
Cc1cccc(C(=O)NC23CC4CC(C2)CC(NC(=O)c2cccc(N5CCC(O)CC5)n2)(C4)C3)n1 [Example 206, 4-Hydroxy-3,4,5,6-tetrahydro-2H-[1,2′]bipyridinyl-6′-carboxylic acid{3-[(6-methyl-pyridine-2-carbonyl)-amino]-adamantan-1-yl}-amide] | 63 to 99
COCCN(C)c1cccc(C(=O)NC23CC4CC(CC(NC(=O)c5cccc(C)n5)(C4)C2)C3)n1 [Example 207, 6-[(2-Methoxy-ethyl)-methyl-amino]-pyridine-2-carboxylic acid{3-[(6-methyl-pyridine-2-carbonyl)-amino]-adamantan-1-yl}-amide] | 63 to 99
Cc1cccc(C(=O)NC23CC4CC(C2)CC(NC(=O)c2cccc(N(C)CCO)n2)(C4)C3)n1 [Example 209, 6-[(2-Hydroxy-ethyl)-methyl-amino]-pyridine-2-carboxylic acid {3-[(6-methyl-pyridine-2-carbonyl)-amino]-adamantan-1-yl}-amide] | 63 to 99
CN1CCN(c2cccc(C(=O)NC34CC5CC(CC(NC(=O)c6cccc(F)c6)(C5)C3)C4)n2)CC1 [Example 216, 6-(4-Methyl-piperazin-1-yl)-pyridine-2-carboxylic acid [3-(3-fluoro-benzoylamino)-adamantan-1-yl]-amide] | 63 to 99
CN(C)C1CCN(c2cccc(C(=O)NC34CC5CC(CC(NC(=O)c6cccc(F)c6)(C5)C3)C4)n2)C1 (centres unmarked) [Example 217, 6-(3-Dimethylamino-pyrrolidin-1-yl)-pyridine-2-carboxylic acid [3-(3-fluoro-benzoylamino)-adamantan-1-yl]-amide] | 63 to 99
COCCCNc1cccc(C(=O)NC23CC4CC(CC(NC(=O)c5ccccn5)(C4)C2)C3)n1 [Example 220, 6-(3-Methoxy-propylamino)-pyridine-2-carboxylic acid {3-[(pyridine-2-carbonyl)-amino]-adamantan-1-yl}-amide] | 63 to 99
CN(C)CCCN(C)c1cccc(C(=O)NC23CC4CC(CC(NC(=O)c5ccccn5)(C4)C2)C3)n1 [Example 221, 6-[(3-Dimethylamino-propyl)-methyl-amino]-pyridine-2-carboxylic acid {3-[(pyridine-2-carbonyl)-amino]-adamantan-1-yl}-amide] | 63 to 99
CN(C)CCNc1cccc(C(=O)NC23CC4CC(CC(NC(=O)c5ccccn5)(C4)C2)C3)n1 [Example 222, 6-(2-Dimethylamino-ethylamino)-pyridine-2-carboxylic acid {3-[(pyridine-2-carbonyl)-amino]-adamantan-1-yl}-amide] | 63 to 99
CC(=O)NCCNc1cccc(C(=O)NC23CC4CC(CC(NC(=O)c5ccccn5)(C4)C2)C3)n1 [Example 223, 6-(2-Acetylamino-ethylamino)-pyridine-2-carboxylic acid {3-[(pyridine-2-carbonyl)-amino]-adamantan-1-yl}-amide] | 63 to 99
COCCNc1cccc(C(=O)NC23CC4CC(CC(NC(=O)c5ccccn5)(C4)C2)C3)n1 [Example 224, 6-(2-Methoxy-ethylamino)-pyridine-2-carboxylic acid {3-[(pyridine-2-carbonyl)-amino]-adamantan-1-yl}-amide] | 63 to 99
COCCN(C)c1cccc(C(=O)NC23CC4CC(CC(NC(=O)c5ccccn5)(C4)C2)C3)n1 [Example 225, 6-[(2-Methoxy-ethyl)-methyl-amino]-pyridine-2-carboxylic acid {3-[(pyridine-2-carbonyl)-amino]-adamantan-1-yl}-amide] | 63 to 99
CN(C)CCCNc1cccc(C(=O)NC23CC4CC(CC(NC(=O)c5ccccn5)(C4)C2)C3)n1 [Example 226, 6-(3-Dimethylamino-propylamino)-pyridine-2-carboxylic acid {3-[(pyridine-2-carbonyl)-amino]-adamantan-1-yl}-amide] | 63 to 99

Second part, the molecule after the results:

Emax [%] | Compound
63 to 99 | O=C(NC12CC3CC(C1)CC(NC(=O)c1cccc(NCCCO)n1)(C3)C2)c1ccccn1 [Example 203, 6-(3-Hydroxy-propylamino)-pyridine-2-carboxylic acid {3-[(pyridine-2-carbonyl)-amino]-adamantan-1-yl}-amide]
63 to 99 | Cc1cccc(C(=O)NC23CC4CC(C2)CC(NC(=O)c2cccc(NCCO)n2)(C4)C3)n1 [Example 208, 6-(2-Hydroxy-ethylamino)-pyridine-2-carboxylic acid {3-[(6-methyl-pyridine-2-carbonyl)-amino]-adamantan-1-yl}-amide]
63 to 99 | Cc1cccc(C(=O)NC23CC4CC(C2)CC(NC(=O)c2cccc(NCCCO)n2)(C4)C3)n1 [Example 210, 6-(3-Hydroxy-propylamino)-pyridine-2-carboxylic acid {3-[(6-methyl-pyridine-2-carbonyl)-amino]-adamantan-1-yl}-amide]
63 to 99 | O=C(NC12CC3CC(C1)CC(NC(=O)c1cccc(NCCO)n1)(C3)C2)c1cccc(F)c1 [Example 212, 6-(2-Hydroxy-ethylamino)-pyridine-2-carboxylic acid [3-(3-fluoro-benzoylamino)-adamantan-1-yl]-amide]
63 to 99 | CN(CCO)c1cccc(C(=O)NC23CC4CC(CC(NC(=O)c5cccc(F)c5)(C4)C2)C3)n1 [Example 213, 6-[(2-Hydroxy-ethyl)-methyl-amino]-pyridine-2-carboxylic acid [3-(3-fluoro-benzoylamino)-adamantan-1-yl]-amide]
63 to 99 | O=C(NC12CC3CC(C1)CC(NC(=O)c1cccc(NCCCO)n1)(C3)C2)c1cccc(F)c1 [Example 214, 6-(3-Hydroxy-propylamino)-pyridine-2-carboxylic acid [3-(3-fluoro-benzoylamino)-adamantan-1-yl]-amide]
63 to 99 | O=C(NC12CC3CC(C1)CC(NC(=O)c1cccc(N4CCOCC4)n1)(C3)C2)c1cccc(F)c1 [Example 215, 6-Morpholin-4-yl-pyridine-2-carboxylic acid [3-(3-fluoro-benzoylamino)-adamantan-1-yl]-amide]
63 to 99 | O=C(NC12CC3CC(C1)CC(NC(=O)c1cccc(N4CCC(O)CC4)n1)(C3)C2)c1cccc(F)c1 [Example 218, 4-Hydroxy-3,4,5,6-tetrahydro-2H-[1,2′]-bipyridinyl-6′-carboxylic acid [3-(3-fluoro-benzoylamino)-adamantan-1-yl]-amide]
63 to 99 | O=C(NC12CC3CC(C1)CC(NC(=O)c1cccc(N4CCC(O)C4)n1)(C3)C2)c1cccc(F)c1 (centres unmarked) [Example 219, 6-(3-Hydroxy-pyrrolidin-1-yl)-pyridine-2-carboxylic acid [3-(3-fluoro-benzoylamino)-adamantan-1-yl]-amide]
